Measured values: patent US20060199832A1, “Use of non-immunosupressive pipecolic acid derivatives for inducing chondrogenic differentiation” (Astellas Pharma Inc., priority 2003, published 2006)

System: ATDC5 cells
Test: Induction of chondrogenic differentiation of ATDC5 cells (Alcian blue staining of proteoglycan)
Assay type: cell-based
Settings: ATDC5 cells incubated for 24 days; compound (1) at 1-10000 ng/ml; results in FIG. 1
Procedure: The inducing activity by the compound (1) on chondrogenic differentiation was evaluated in accordance with the below-mentioned method.
(1) The ATDC5 cell line provided by RIKEN Cell Bank (Tsukuba, Japan) was grown in a 1:1 mixture of Dulbecco's modified Eagle's medium and Ham's F12 medium (Nikken Biomedical Laboratory, Kyoto, Japan) supplemented with 10% heat-inactivated fetal bovine serum (Intergen, Purchase, N.Y.).
(2) The above ATDC5 cells were plated in 12-multiwell plastic plate at a density of 1×10^5 cells/well in the medium. After 4 hr, the medium was replaced with fresh medium containing the compound (1) or Cyclosporin A (CsA), and the culture was continued for a 24 days with medium change every 2 or 3 days. Cells were fixed with methanol and stained 0.1% Alcian blue (Sigma Chemical Co., St. Louis, Mo.) dissolved in 0.1 M hydrochloric acid for 16 hr at room temperature. Cells were then rinsed three times with distilled water, and the amount of cell-associated dye was measured at 620 nm after extraction with 6 M guanidine-HCl (300 μl/well)
ATDC5 cells were incubated with the compound (1) or CsA for 24 days and the amount of proteoglycan was assayed.

Compound | chondrogenic differentiation (amount of proteoglycan, cell-associated Alcian blue dye measured at 620 nm)
Cyclosporin A [CsA] | did not induce the differentiation
COC1CC(/C=C(\C)C2OC(=O)C3CCCCN3C(=O)C(=O)C3(O)OC(C(OC)CC(C)C/C(C)=C/C(CC(C)=O)C(=O)CC(O)C2C)C(OC)CC3C)CCC1O (centres unmarked) [compound (1)] | induced differentiation into chondrocyte in a concentration-dependent manner
